We go through 5 compounds from ChEMBL document CHEMBL3045185, “Characterization of metabolites of fungicidal cymoxanil in a sensitive strain of Botrytis cinerea” (J Agric Food Chem, 2008).

Values after ≈ are worked out from the molar mass of the structure shown.

One data set has as its system Botrytis cinerea. The data set can be described thus: Fungicidal activity against drug sensitive Botryotinia fuckeliana assessed as inhibition of germ tube elongation. The class given is functional, organism-based.
Data set [1] is described as follows: Half life in soil assessed as compound degradation through hydrolysis and microbial degradation.
Data set [2] in a line: Half life in drug sensitive Botryotinia fuckeliana cultures. The following applies: botrytis cinerea, in vivo.
[3] abbreviates: Botrytis cinerea, read-out: EC50.

As usually defined, the EC50 is the concentration at which the effect is half-maximal. For the compound `CC(=O)NC(C#N)C(=O)O` (configuration not stated), the EC50 in the data set with Botrytis cinerea (setting [3]) was determined as 0.025 µg/mL (≈ 0.176 µM).

Regarding `CCN1C(=O)NC(=O)/C1=N/OC`, the EC50 entry with Botrytis cinerea is “Not Active”.

In the case of `CCNC(=O)N1C(=O)C(C#N)=NC1(C)C`, in the data set on Botrytis cinerea, the half-maximal effective concentration (EC50) result was “Not Active”.

The term half-life denotes the time in which the quantity being followed falls by half. Consider `CCNC(=O)NC(=O)/C(C#N)=N/OC` [CYMOXANIL], for which the half-life in data set [1] is less than 48 h; in data set [2] it was not above 2 h. Moreover, the EC50 in the data set on Botrytis cinerea (setting [3]) turned out to be 0.25 µg/mL (≈ 1.26 µM).

As for `CCN1C(=O)NC(=O)C1=O`, the concentration for a half-maximal effect (EC50) result in the data set on Botrytis cinerea is “Not Active”.
